Test results reported in ChEMBL document CHEMBL1955725, “Structure-guided lead optimization of triazolopyrimidine-ring substituents identifies potent Plasmodium falciparum dihydroorotate dehydrogenase inhibitors with clinical candidate potential” (J Med Chem, 2011).
≈ marks a conversion by molar mass, not a printed value.

Assays:
[1] = test system: Plasmodium falciparum; assay: Antimalarial activity against Plasmodium falciparum 3D7 by [3H]hypoxanthine incorporation assay in presence of human serum; type: functional, organism-based
[2] = biological target: T1, Dihydroorotate dehydrogenase (Plasmodium falciparum, UniProt Q54A96)
T1 sequence (Q54A96 whole entry): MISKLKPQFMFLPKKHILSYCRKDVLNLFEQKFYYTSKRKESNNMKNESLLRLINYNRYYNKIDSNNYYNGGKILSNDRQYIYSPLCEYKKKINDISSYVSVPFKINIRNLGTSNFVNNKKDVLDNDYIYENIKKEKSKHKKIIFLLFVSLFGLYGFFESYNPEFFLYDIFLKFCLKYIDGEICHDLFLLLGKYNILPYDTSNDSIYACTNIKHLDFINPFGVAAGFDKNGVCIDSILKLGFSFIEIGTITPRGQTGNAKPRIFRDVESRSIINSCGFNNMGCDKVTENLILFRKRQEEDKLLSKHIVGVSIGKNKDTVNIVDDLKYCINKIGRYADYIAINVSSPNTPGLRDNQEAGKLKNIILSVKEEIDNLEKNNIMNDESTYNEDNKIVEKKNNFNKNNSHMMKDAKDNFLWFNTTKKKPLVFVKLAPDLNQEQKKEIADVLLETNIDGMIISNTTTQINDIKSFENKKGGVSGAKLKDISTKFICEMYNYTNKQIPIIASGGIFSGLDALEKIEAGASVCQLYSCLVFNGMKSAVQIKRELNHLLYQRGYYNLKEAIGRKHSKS

[3] = test system: Liver microsomes; assay: Intrinsic clearance in human liver microsomes; type: ADME, Microsome
[4] = Inhibition of Plasmodium berghei C-terminal hexa-His tagged DHODH expressed in Escherichia coli by DCIP reduction assay
[5] = test system: Liver; assay: Intrinsic clearance in mouse liver microsomes; type: ADME, Microsome
[6] = biological target: Dihydroorotate dehydrogenase (quinone), mitochondrial (Homo sapiens, UniProt Q02127)
Chain of Dihydroorotate dehydrogenase (quinone), mitochondrial (Q02127 whole entry): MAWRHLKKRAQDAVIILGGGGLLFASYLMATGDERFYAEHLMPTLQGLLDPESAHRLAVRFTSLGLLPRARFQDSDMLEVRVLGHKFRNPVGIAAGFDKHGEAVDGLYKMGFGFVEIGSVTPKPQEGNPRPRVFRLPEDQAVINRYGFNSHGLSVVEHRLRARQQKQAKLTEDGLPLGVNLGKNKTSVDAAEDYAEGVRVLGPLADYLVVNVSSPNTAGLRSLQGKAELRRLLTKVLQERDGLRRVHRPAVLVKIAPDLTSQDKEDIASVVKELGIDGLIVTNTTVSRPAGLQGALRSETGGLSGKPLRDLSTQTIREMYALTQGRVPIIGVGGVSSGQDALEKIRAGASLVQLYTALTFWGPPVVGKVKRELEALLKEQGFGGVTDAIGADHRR

[7] = Aqueous solubility of the compound at pH 6.5; type: physicochemical
[8] = Lipophilicity, log D of the compound at pH 7.4; type: physicochemical; settings: buffer
[9] = test system: Plasma; assay: Plasma protein binding in human by chromatographic method; type: ADME, cell-free

Row | Compound | EC50 [1] [nM] | IC50 [2] [nM] | also measured
1 | Cc1cc(Nc2cccc(Cl)c2)n2nc(CN)nc2n1 | – | > 10000 | –
2 | Cc1cc(Nc2ccc(S(F)(F)(F)(F)F)cc2)n2nc(OCCN(C)C)nc2n1 | – | > 10000 | –
3 | Cc1cc(Nc2ccc(C(F)(F)F)cc2)n2nc(C(F)(F)F)nc2n1 | 73 | 35 | Intrinsic clearance [3]: < 5 µL/min/mg; IC50 [4]: 1300 nM; Intrinsic clearance [5]: < 6 µL/min/mg; IC50 [6]: > 100000 nM
4 | CNCc1nc2nc(C)cc(Nc3ccc(Cl)cc3)n2n1 | – | > 10000 | –
5 | CNCCOc1nc2nc(C)cc(Nc3cccc(Cl)c3)n2n1 | – | > 10000 | –
6 | Cc1cc(Nc2ccc(C(F)(F)F)cc2)n2nc(OCCN)nc2n1 | – | > 10000 | –
7 | Cc1cc(Nc2ccc(Cl)cc2)n2nc(OCCN)nc2n1 | – | > 10000 | –
8 | COCCc1nc2nc(C)cc(Nc3ccc(C(F)(F)F)cc3)n2n1 | 4200 | 2500 | Intrinsic clearance [3]: 9 µL/min/mg; solubility [7]: 71 µM (≈ 24.9 µg/mL); logD [8]: 2.7; PPB [9]: 73.7%; Intrinsic clearance [5]: 14.3 µL/min/mg
9 | CNCCOc1nc2nc(C)cc(Nc3ccc(Cl)cc3)n2n1 | – | > 10000 | –
10 | Cc1cc(Nc2cccc(Cl)c2)n2nc(CC(C)C)nc2n1 | – | > 10000 | –
11 | Cc1cc(Nc2cccc(Cl)c2)n2nc(OCCN)nc2n1 | – | > 10000 | –
12 | Cc1cc(Nc2cccc(Cl)c2)n2[nH]c(=O)nc2n1 | – | > 10000 | –
13 | COCCc1nc2nc(C)cc(Nc3ccc(Cl)cc3)n2n1 | – | > 10000 | –
14 | CCC(F)(F)c1nc2nc(C)cc(Nc3cccc(Cl)c3)n2n1 | 1200 | 30 | IC50 [4]: 1400 nM; IC50 [6]: > 100000 nM
15 | CCOc1nc2nc(C)cc(Nc3ccc(Cl)cc3)n2n1 | 1300 | 270 | IC50 [4]: 1600 nM; IC50 [6]: > 100000 nM
16 | Cc1cc(Nc2cccc(Cl)c2)n2nc(C3CC3)nc2n1 | – | 820 | IC50 [4]: 1700 nM; IC50 [6]: > 100000 nM
17 | Cc1cc(Nc2ccc(C(F)(F)F)cc2)n2nc(C(C)C)nc2n1 | 98 | 110 | IC50 [4]: 4500 nM; IC50 [6]: > 100000 nM
18 | Cc1cc(Nc2ccc(Cl)cc2)n2nc(CCN)nc2n1 | – | > 10000 | –
19 | Cc1cc(Nc2cccc(Cl)c2)n2nc(CC3CC3)nc2n1 | – | > 10000 | –
20 | CNCCOc1nc2nc(C)cc(Nc3ccc(S(F)(F)(F)(F)F)cc3)n2n1 | – | > 10000 | –
21 | Cc1cc(Nc2ccc(C(F)(F)F)cc2)n2nc(OCCN(C)C)nc2n1 | – | > 10000 | –
22 | CCC(C)c1nc2nc(C)cc(Nc3ccc(C(F)(F)F)cc3)n2n1 (stereo not given) | 270 | 380 | IC50 [4]: 4600 nM; IC50 [6]: > 100000 nM

Row | Compound | EC50 [1] [nM] | IC50 [2] [nM] | also measured
23 | CNCc1nc2nc(C)cc(Nc3cccc(Cl)c3)n2n1 | – | > 10000 | –
24 | Cc1cc(Nc2ccc(Cl)cc2)n2nc(C3CC3)nc2n1 | 6800 | 880 | IC50 [4]: 2800 nM; IC50 [6]: > 100000 nM
25 | COCCc1nc2nc(C)cc(Nc3ccc(S(F)(F)(F)(F)F)cc3)n2n1 | 5000 | 2500 | Intrinsic clearance [3]: 11.5 µL/min/mg; solubility [7]: 31 µM (≈ 12.7 µg/mL); logD [8]: 3; PPB [9]: 87.7%; Intrinsic clearance [5]: 14.1 µL/min/mg
26 | CCOc1nc2nc(C)cc(Nc3cccc(Cl)c3)n2n1 | 4400 | 400 | IC50 [4]: 1900 nM; IC50 [6]: > 100000 nM
27 | Cc1cc(Nc2ccc(S(F)(F)(F)(F)F)cc2)n2nc(C(C)(C)C)nc2n1 | 2300 | 550 | IC50 [4]: 16000 nM; IC50 [6]: > 100000 nM
28 | COCCc1nc2nc(C)cc(Nc3cccc(Cl)c3)n2n1 | – | > 10000 | –
29 | COc1nc2nc(C)cc(Nc3cccc(Cl)c3)n2n1 | 980 | – | IC50 [4]: 1300 nM
30 | CCC(F)(F)c1nc2nc(C)cc(Nc3ccc(Cl)cc3)n2n1 | 94 | 34 | IC50 [4]: 1800 nM; IC50 [6]: > 100000 nM
31 | Cc1cc(Nc2ccc(Cl)cc2)n2[nH]c(=O)nc2n1 | – | > 10000 | –
32 | CCC(C)c1nc2nc(C)cc(Nc3ccc(S(F)(F)(F)(F)F)cc3)n2n1 (stereo not given) | 510 | 330 | IC50 [4]: 4500 nM; IC50 [6]: > 100000 nM
33 | Cc1cc(Nc2cccc(Cl)c2)n2nc(OCCN(C)C)nc2n1 | – | > 10000 | –
34 | Cc1cc(Nc2ccc(S(F)(F)(F)(F)F)cc2)n2nc(C(C)C)nc2n1 | 420 | 100 | IC50 [4]: 3800 nM; IC50 [6]: > 100000 nM
35 | CNCCOc1nc2nc(C)cc(Nc3ccc(C(F)(F)F)cc3)n2n1 | – | > 10000 | –
36 | Cc1cc(Nc2ccc(Cl)cc2)n2nc(CN)nc2n1 | – | > 10000 | –
37 | Cc1cc(Nc2ccc(C(F)(F)F)cc2)n2nc(C(C)(C)C)nc2n1 | 290 | 460 | IC50 [4]: 15000 nM; IC50 [6]: > 100000 nM
38 | Cc1cc(Nc2ccc(S(F)(F)(F)(F)F)cc2)n2nc(CC(C)C)nc2n1 | – | > 10000 | –
39 | Cc1cc(Nc2ccc(Cl)cc2)n2nc(CN(C)C)nc2n1 | – | > 10000 | –
40 | Cc1cc(Nc2cccc(Cl)c2)n2ncnc2n1 | – | – | logD [8]: 2.4
41 | Cc1cc(Nc2ccc(Cl)cc2)n2nc(OCCN(C)C)nc2n1 | – | > 10000 | –
42 | Cc1cc(Nc2ccc(Cl)cc2)n2nc(CC(C)C)nc2n1 | – | > 10000 | –
43 | Cc1cc(Nc2cccc(Cl)c2)n2nc(CN(C)C)nc2n1 | – | > 10000 | –

Continued, in another order:

Row | EC50 [1] [nM] | IC50 [2] [nM] | Compound | also measured
44 | 3400 | 1700 | Cc1cc(Nc2ccc(C(F)(F)F)cc2)n2nc(CC3CC3)nc2n1 | –
45 | > 2500 | > 10000 | CNCCc1nc2nc(C)cc(Nc3cccc(Cl)c3)n2n1 | –
46 | – | > 10000 | COCCOc1nc2nc(C)cc(Nc3ccc(Cl)cc3)n2n1 | –
47 | > 2500 | > 10000 | CNCCc1nc2nc(C)cc(Nc3ccc(Cl)cc3)n2n1 | –
48 | – | 2000 | Cc1cc(Nc2ccc(C(F)(F)F)cc2)n2nc(CC(C)C)nc2n1 | –
49 | > 10000 | 5700 | Cc1cc(Nc2ccc(S(F)(F)(F)(F)F)cc2)n2nc(CC3CC3)nc2n1 | –
50 | 1400 | 45 | Cc1cc(Nc2ccc(Cl)cc2)n2nc(S(C)(=O)=O)nc2n1 | –
51 | 150 | 26 | CSc1nc2nc(C)cc(Nc3cccc(Cl)c3)n2n1 | –
52 | – | 4900 | COCCOc1nc2nc(C)cc(Nc3cccc(Cl)c3)n2n1 | IC50 [4]: > 10000 nM
53 | 590 | 460 | COc1nc2nc(C)cc(Nc3ccc(Cl)cc3)n2n1 | IC50 [4]: 1200 nM
54 | – | 12000 | Cc1cc(Nc2ccc(Cl)cc2)n2nc(CC3CC3)nc2n1 | –
55 | 2000 | 110 | Cc1cc(Nc2ccc(S(F)(F)(F)(F)F)cc2)n2nc(S(C)(=O)=O)nc2n1 | –
56 | > 10000 | 6100 | Cc1cc(Nc2cccc(Cl)c2)n2nc(CO)nc2n1 | –
57 | > 2500 | 5300 | Cc1cc(Nc2ccc(Cl)cc2)n2nc(CO)nc2n1 | –
58 | > 2500 | 160 | Cc1cc(Nc2cccc(Cl)c2)n2nc(S(C)(=O)=O)nc2n1 | –
59 | 150 | 30 | CSc1nc2nc(C)cc(Nc3ccc(Cl)cc3)n2n1 | –
60 | – | 2200 | COCc1nc2nc(C)cc(Nc3ccc(Cl)cc3)n2n1 | –
61 | – | 1700 | COCc1nc2nc(C)cc(Nc3cccc(Cl)c3)n2n1 | –
62 | 1100 | 120 | Cc1cc(Nc2cccc(Cl)c2)n2nc(C(C)C)nc2n1 | IC50 [4]: 570 nM
63 | 140 | 30 | Cc1cc(Nc2ccc(S(F)(F)(F)(F)F)cc2)n2nc(C(F)(F)F)nc2n1 | Intrinsic clearance [3]: < 5 µL/min/mg; solubility [7]: 30 µM (≈ 12.6 µg/mL); logD [8]: 3.7; IC50 [4]: 2500 nM; Intrinsic clearance [5]: < 6 µL/min/mg
64 | 170 | 90 | Cc1cc(Nc2ccc(C(F)(F)F)cc2)n2nc(S(C)(=O)=O)nc2n1 | –
